{"source": "patent US20260130933A1", "about": "“PHARMACEUTICAL COMPOSITION FOR PREVENTION OR TREATMENT OF NEPHROPATHY AND/OR DIABETES MELLITUS, COMPRISING ENAVOGLIFLOZIN” (DAEWOONG PHARMACEUTICAL CO., LTD., priority 2022, published 2026)", "experiment": "Example 2: phase 3 trial, enavogliflozin 0.3 mg vs dapagliflozin 10 mg once a day for 24 weeks added to metformin in patients with type 2 diabetes (same efficacy, exploratory and safety endpoints)", "format": "in vivo, human", "protocol": "Subjects who met the inclusion/exclusion criteria were administered a placebo of the clinical trial drug under single-blind (subject blinding) conditions during a 2-week run-in period while continuing to receive metformin. […] The randomized subjects were administered two tablets of the clinical trial drug for each administration group once a day, and then visited the institution at weeks 6, 12, 18, and 24 during the 24-week administration period to conduct efficacy and safety evaluations.\n• 1. Change in HbA1c at week 24 after administration of clinical trial drug compared to Visit 2 (randomization)\n• 1. Change in HbA1c at each time point of weeks 6, 12, and 18 after administration of clinical trial drug compared to Visit 2 (randomization) • 2. Change in FPG at each time point of weeks 6, 12, 18, and 24 after administration of clinical trial drug compared to Visit 2 (randomization) • 3. Proportion of subjects achieving HbA1c<7% at each time point of weeks 6, 12, 18, and 24 after administration of clinical trial drug • 4. Proportion of subjects achieving HbA1c<6.5% at each time point of weeks 6, 12, 18, and 24 after administration of clinical trial drug • 5. Proportion of subjects achieving therapeutic response (HbA1c change (HbA1c at Visit 2-HbA1c at each evaluation time point)>0.5% or HbA1c<7% at each evaluation time point compared to Visit 2 (randomization)) at each time point of weeks 6, 12, 18 and 24 after administration of clinical trial drug\n• 1. Change in fasting c-peptide at each time point of weeks 6, 12, 18, and 24 after administration of clinical trial drug compared to Visit 2 (randomization) • 2. Change in body weight at each time point of weeks 6, 12, 18, and 24 after administration of clinical trial drug compared to Visit 2 (randomization) • 3. Change in fasting lipid concentration (total cholesterol, LDL-C, HDL-C, and triglycerides) at each time point of weeks 6, 12, 18, and 24 after administration of clinical trial drug compared to Visit 2 (randomization) • 4. Changes in systolic or diastolic blood pressure at each time point of weeks 6, 12, 18, and 24 after administration of clinical trial drug compared to Visit 2 (randomization) • 5. Changes in β-cell function and insulin resistance measured by HOMA-β and HOMA-IR at each time point of weeks 6, 12, 18, and 24 after administration of clinical trial drug compared to Visit 2 (randomization) • 6. Changes in renal function-related indicators (UACR, UGCR) measured by UACR at each time point of weeks 6, 12, 18, and 24 after administration of clinical trial drug compared to Visit 2 (randomization) • 7. Changes in obesity-related indicators (adiponectin, leptin) at each time point of weeks 6, 12, 18, and 24 after administration of clinical trial drug compared to Visit 2 (randomization)", "key": {"[1]": {"details": "Week 24, mPPS1, enavogliflozin minus dapagliflozin"}, "[2]": {"details": "Week 24, mPPS2, enavogliflozin minus dapagliflozin"}, "[3]": {"details": "week 6, modified per-protocol set 1, enavogliflozin 0.3 mg, dapagliflozin 10 mg"}, "[4]": {"details": "week 6, per-protocol set, enavogliflozin 0.3 mg vs dapagliflozin 10 mg"}, "[5]": {"details": "week 6, per-protocol set, enavogliflozin 0.3 mg, dapagliflozin 10 mg"}}, "data": [{"smiles": "OC[C@H]1O[C@@H](c2cc(Cc3ccc(C4CC4)cc3)c(Cl)c3c2CCO3)[C@H](O)[C@@H](O)[C@@H]1O", "note": "[Enavogliflozin, (2S,3R,4R,5S,6R)-2-(7-chloro-6 (4-cyclopropylbenzyl)-2,3-dihydrobenzofuran-4-yl)-6-(hydroxymethyl)tetrahydro-2H-pyran-3,4,5-triol]", "values": [{"measurement": "Triglycerides, Mean (SD)", "setting": "Week 24, mPPS1", "result": "119.62(58.93) mg/dL"}, {"measurement": "Triglycerides, Median", "setting": "Week 24, mPPS1", "result": 104.00, "unit": "mg/dL"}, {"measurement": "HDL-C change from baseline, LS mean difference", "setting": "[1]", "result": -0.14, "unit": "mg/dL"}, {"measurement": "LDL-C change from baseline, LS mean difference", "setting": "[1]", "result": 0.71, "unit": "mg/dL"}, {"measurement": "triglycerides change from baseline, LS mean difference", "setting": "[1]", "result": 1.63, "unit": "mg/dL"}, {"measurement": "Diastolic blood pressure change from baseline, ANCOVA LS mean (SE)", "setting": "Week 24, mPPS2", "result": "−5.41", "unit": "mmHg"}, {"measurement": "Diastolic blood pressure change from baseline, Mean (SD)", "setting": "Week 24, mPPS2", "result": "−5.40", "unit": "mmHg"}, {"measurement": "Diastolic blood pressure change from baseline, Median", "setting": "Week 24, mPPS2", "result": "−6.00", "unit": "mmHg"}, {"measurement": "Diastolic blood pressure, Mean (SD)", "setting": "Week 24, mPPS2", "result": 71.65, "unit": "mmHg"}, {"measurement": "Diastolic blood pressure, Median", "setting": "Week 24, mPPS2", "result": 71.00, "unit": "mmHg"}, {"measurement": "Systolic blood pressure change from baseline, ANCOVA LS mean (SE)", "setting": "Week 24, mPPS2", "result": "−5.93(1.01) mmHg"}, {"measurement": "Systolic blood pressure change from baseline, Mean (SD)", "setting": "Week 24, mPPS2", "result": "−6.34(9.75) mmHg"}, {"measurement": "Systolic blood pressure change from baseline, Median", "setting": "Week 24, mPPS2", "result": "−5.00", "unit": "mmHg"}, {"measurement": "Systolic blood pressure, Mean (SD)", "setting": "Week 24, mPPS2", "result": "123.38(12.55) mmHg"}, {"measurement": "Systolic blood pressure, Median", "setting": "Week 24, mPPS2", "result": 122.00, "unit": "mmHg"}, {"measurement": "diastolic blood pressure change from baseline, LS mean difference", "setting": "[2]", "result": "−1.15", "unit": "mmHg"}, {"measurement": "systolic blood pressure change from baseline, LS mean difference", "setting": "[2]", "result": 0.63, "unit": "mmHg"}, {"measurement": "FPG change from baseline, LS mean (SE)", "setting": "week 6", "result": "−28.07(2.14) mg/dL"}, {"measurement": "HOMA-IR change from baseline, LS mean (SE)", "setting": "week 6", "result": "−1.47(0.14)"}, {"measurement": "HOMA-β change from baseline, LS mean (SE)", "setting": "week 6", "result": "7.22(5.44)"}, {"measurement": "HbA1c change from baseline, LS mean (SE)", "setting": "week 6", "result": "−0.68(0.04) % p"}, {"measurement": "LDL-C change from baseline, LS mean (SE)", "setting": "week 6", "result": "−0.09(1.89) mg/dL"}, {"measurement": "Subjects achieving HbA1c target of <7%", "setting": "week 6", "result": "(53.68) %"}, {"measurement": "Subjects achieving HbA1c<6.5%", "setting": "week 6", "result": 12.63, "unit": "%"}, {"measurement": "Subjects achieving therapeutic response (HbA1c change >0.5% or HbA1c<7%)", "setting": "week 6", "result": 78.95, "unit": "%"}, {"measurement": "UACR change from baseline, LS mean (SE)", "setting": "week 6", "result": "−12.75(10.48) g/kg"}, {"measurement": "UGCR change from baseline, LS mean (SE)", "setting": "week 6", "result": "65.72(2.70) mg/mg"}, {"measurement": "diastolic blood pressure change from baseline, LS mean (SE)", "setting": "week 6", "result": "−2.75(0.69) mmHg"}, {"measurement": "fasting c-peptide change from baseline, LS mean (SE)", "setting": "week 6", "result": "−0.07(0.02) ng/ml"}, {"measurement": "leptin change from baseline, LS mean (SE)", "setting": "week 6", "result": "−2.43(0.46) ng/mL"}, {"measurement": "FPG change from baseline, LS mean difference", "setting": "week 6, vs dapagliflozin", "result": -4.27, "unit": "mg/dL"}, {"measurement": "HDL-C change from baseline, LS mean difference", "setting": "week 6, vs dapagliflozin", "result": -0.49, "unit": "mg/dL"}, {"measurement": "HOMA-IR change from baseline, LS mean difference", "setting": "week 6, vs dapagliflozin", "result": "−0.16"}, {"measurement": "HOMA-β change from baseline, LS mean difference", "setting": "week 6, vs dapagliflozin", "result": 9.01}, {"measurement": "HbA1c change from baseline, LS mean difference", "setting": "week 6, vs dapagliflozin", "result": "−0.05", "unit": "% p"}, {"measurement": "LDL-C change from baseline, LS mean difference", "setting": "week 6, vs dapagliflozin", "result": -4.29, "unit": "mg/dL"}, {"measurement": "Odds ratio for achieving HbA1c<6.5%", "setting": "week 6, vs dapagliflozin", "result": 0.83}, {"measurement": "Odds ratio for achieving HbA1c<7%", "setting": "week 6, vs dapagliflozin", "result": 1.06}, {"measurement": "Odds ratio for achieving therapeutic response", "setting": "week 6, vs dapagliflozin", "result": 0.98}, {"measurement": "UACR change from baseline, LS mean difference", "setting": "week 6, vs dapagliflozin", "result": "−20.88"}, {"measurement": "UGCR change from baseline, LS mean difference", "setting": "week 6, vs dapagliflozin", "result": 15.62, "unit": "mg/mg"}, {"measurement": "body weight change from baseline, LS mean difference", "setting": "week 6, vs dapagliflozin", "result": 0.04, "unit": "kg"}, {"measurement": "diastolic blood pressure change from baseline, LS mean difference", "setting": "week 6, vs dapagliflozin", "result": "−1.28", "unit": "mmHg"}, {"measurement": "fasting c-peptide change from baseline, LS mean difference", "setting": "week 6, vs dapagliflozin", "result": 0.00, "unit": "ng/mL"}, {"measurement": "leptin change from baseline, LS mean difference", "setting": "week 6, vs dapagliflozin", "result": -0.81, "unit": "ng/mL"}, {"measurement": "systolic blood pressure change from baseline, LS mean difference", "setting": "week 6, vs dapagliflozin", "result": "−0.58", "unit": "mmHg"}, {"measurement": "total cholesterol change from baseline, LS mean difference", "setting": "week 6, vs dapagliflozin", "result": -2.10, "unit": "mg/dL"}, {"measurement": "triglyceride change from baseline, LS mean difference", "setting": "week 6, vs dapagliflozin", "result": 18.76, "unit": "mg/dL"}, {"measurement": "Subjects achieving HbA1c target of <7%", "setting": "week 6, listed as enavogliflozin", "result": 53.68, "unit": "%"}, {"measurement": "Change from baseline in total cholesterol, ANCOVA LS mean difference", "setting": "week 6, modified per-protocol set 1, enavogliflozin 0.3 mg vs dapagliflozin 10 mg", "result": -2.10, "unit": "mg/dL"}, {"measurement": "Change from baseline in Total cholesterol, ANCOVA LS mean (SE)", "setting": "[3]", "result": "4.77(2.19) mg/dL"}, {"measurement": "Change from baseline in Total cholesterol, Mean (SD)", "setting": "[3]", "result": "4.34(17.75) mg/dL"}, {"measurement": "Change from baseline in total cholesterol, Median", "setting": "[3]", "result": 3.00, "unit": "mg/dL"}, {"measurement": "fasting Total cholesterol, Mean (SD)", "setting": "[3]", "result": "155.77(35.37) mg/dL"}, {"measurement": "fasting Total cholesterol, Median", "setting": "[3]", "result": 147.00, "unit": "mg/dL"}, {"measurement": "Change from baseline in FPG, ANCOVA LS mean difference", "setting": "[4]", "result": -4.27, "unit": "mg/dL"}, {"measurement": "Change from baseline in HbA1c, ANCOVA LS mean difference", "setting": "[4]", "result": "−0.05", "unit": "% p"}, {"measurement": "Change from baseline in body weight, ANCOVA LS mean difference", "setting": "[4]", "result": 0.04, "unit": "kg"}, {"measurement": "Change from baseline in fasting c-peptide, ANCOVA LS mean difference", "setting": "[4]", "result": 0.00, "unit": "ng/mL"}, {"measurement": "Odds ratio for achieving HbA1c target of <6.5%, logistic regression model", "setting": "[4]", "result": 0.83}, {"measurement": "Odds ratio for achieving therapeutic glycemic response, logistic regression model", "setting": "[4]", "result": 0.98}, {"measurement": "Change from baseline in FPG, ANCOVA LS mean (SE)", "setting": "[5]", "result": -28.07, "unit": "mg/dL"}, {"measurement": "Change from baseline in FPG, Mean (SD)", "setting": "[5]", "result": -26.91, "unit": "mg/dL"}, {"measurement": "Change from baseline in FPG, Median", "setting": "[5]", "result": -27.00, "unit": "mg/dL"}, {"measurement": "Change from baseline in HbA1c, ANCOVA LS mean (SE)", "setting": "[5]", "result": "−0.68", "unit": "% p"}, {"measurement": "Change from baseline in HbA1c, Mean (SD)", "setting": "[5]", "result": "−0.62", "unit": "% p"}, {"measurement": "Change from baseline in HbA1c, Median", "setting": "[5]", "result": "−0.57", "unit": "% p"}, {"measurement": "Change from baseline in body weight, ANCOVA LS mean (SE)", "setting": "[5]", "result": "−1.56(0.20) kg"}, {"measurement": "Change from baseline in body weight, Mean (SD)", "setting": "[5]", "result": "−1.56(2.30) kg"}, {"measurement": "Change from baseline in body weight, Median", "setting": "[5]", "result": -1.70, "unit": "kg"}]}]}
